“Also recorded” adds a separate entry of the source.
Key:
HSV-2 [1] = experiment: HSV-2 plaque assay after pretreatment with Akt pharmacological inhibitors; assay type: cell-based; settings: CaSki, SK-N-SH or HaCAT cells pretreated 15 min with drug, infected with HSV-2 1 h, plaques counted 48 h pi
Experimental: FIG. 8A-8B: Pharmacological inhibitors of Akt signaling inhibit HSV-2 plaque formation. Cells (CaSki, SK-N-SH, or HaCAT) cells were pretreated for 15 minutes with each of the indicated drugs and then challenged with serial dilutions of HSV-2. The inoculum (and drug) were removed after 1 h, and then cells were overlaid with fresh medium; plaques were counted after 48 h incubation. Results are presented as percent pfu relative to control wells (treated with 0.1% DMSO) (a). Alternatively, cells were treated for 24 h with drugs alone (0.01% nonoxynol-9 (N9) is included as a positive toxicity control) and then cell viability determined by MTT assay (b).
Akt is a potential target for HSV treatment: A series of Akt pharmacological inhibitors being developed as adjunct therapy for cancer including MK-2206, an allosteric Akt inhibitor (Yap, 2011); inhibitor VIII, which binds to the pleckstrin homology domain of Akt and prevents subsequent phosphorylation as well as translocation of Akt to the plasma membrane (Calleja, 2009); miltefosine, a drug licensed for treatment of leishmaniasis and other protozoal infections that blocks Akt phosphorylation (Ruiter, 2003), and perifosine, a structural analogue of miltefosine in Phase 3 clinical trials for treatment of several cancers (Richardson, 2012) were tested. […]

Akt = experiment: Western blot of HSV-induced Akt phosphorylation (pS473-Akt1/2/3) in HaCAT cells; assay type: cell-based, human; settings: HaCAT cells pretreated with drug, HSV-2(G) moi 10 pfu/cell
HSV-1 K26GFP = experiment: Viral entry by confocal microscopy with HSV-1 K26GFP in CaSki cells; assay type: cell-based; settings: CaSki cells pretreated with drug
Experimental: (§1) FIG. 3A-3C: Silencing of Akt inhibits viral entry independent of viral binding. Transfected CaSki cells were exposed to serial dilutions of HSV-2(G) at the moi (pfu/cell) indicated for 5 h at 4° C. The cell-bound viral particles were detected by analyzing Western blots of cell lysates for gD; blots were also probed with antibodies to total Akt (to assess silencing) and β-actin (control for protein loading) (a). Cells were transfected with siControl or siAkt123 and silencing confirmed by preparing Western blots of cell lysates 48 h post-transfection and probing for total Akt and β-actin expression (b). The siRNA-transfected cells were inoculated with HSV-2(G) and nuclear extracts were prepared and analyzed for the presence of the viral tegument protein VP16 by Western blotting; blots were probed with antibodies to histone-H1 as a nuclear extract control. […]
Two independent approaches were applied to determine if Akt contributes to viral entry. […] After incubation for 45 minutes, nuclear extracts were prepared and evaluated for VP16 by Western blot; histone H1 was included as a control for the nuclear extracts (FIG. 3b). […] Viral capsids were readily detected in the majority of siControl cells (73% and 82% 1 and 4 h pi, respectively), whereas viral capsids were detected in few siAkt cells (7% and 5.5%) (FIG. 3c). […]
Confocal microscopy: Viral entry was also monitored by confocal microscopy. […]

[2] = system: HSV-2 clinical isolates DT1 and DT2; settings: CaSki cells pretreated
Experimental: CaSki cells were pretreated with control buffer or with miltefosine prior to Infection with an acyclovir susceptible (DT1) or acyclovir-resistant (DT2) isolate. Alternatively cells were pretreated with control buffer and acyclovir (dose) was added to the overlay media.
The HSV-2 clinical isolates 4674, DT1 (acyclovir susceptible) and DT2 (acyclovir resistant) were propagated on CaSki cells (Segarra, 2011)(Oram, 2000).
For plaque assays, cells were exposed to serial dilutions of virus for 1 h and then washed three times with phosphate buffered saline (PBS), pH 7.4, and overlaid with 199 medium containing 1% pooled human IgG. Plaques were counted by immunoassay using an anti-human IgG antibody peroxidase conjugate (Calbiochem) (Herold, 1991). In select experiments cells were pretreated with drugs that block Akt signaling or acyclovir was added to the overlay medium.

[3] = system: HSV-induced Ca2+ response; experiment: Calcium kinetic measurements (fura-2 fluorometry) in CaSki cells; assay type: cell-based, human
Experimental: FIG. 4A-4E: Akt is required for HSV-induced calcium release and treatment with the ionophore, ionomycin, partially overcomes the block to infection in Akt-silenced cells. CaSki cells were loaded with Calcium Green 72 h post-transfection with the indicated siRNA and synchronously mock-infected or infected with purified HSV-2(G). Live images were acquired 3 min post-temperature shift to 37° C. For these xyz images, the plasma membranes are red (medium gray in grayscale), nuclei are blue (darkest gray in grayscale), and Ca^2+ is green (lighter gray in grayscale); colocalization of Ca^2+ and plasma membrane is yellow (lightest gray in grayscale). Representative images from 4 independent experiments are shown; the grid bars indicate a distance of 9.2 micrometers (a). Transfected cells were loaded with fura-2, infected with purified HSV-2 (moi 2 pfu/cell) or mock-infected and the kinetics of Ca^2+ response monitored. The mean intracellular [Ca^2+] for 5×10^4 cells over the first 30 minutes was quantified; control cells were also pretreated with wortmannin or miltefosine and then infected with HSV-2 (b). The cumulative [Ca^2+] released over 1 hour was calculated from 4 wells, each containing 5×10^4 cells (mock-infected, HSV-2 infected in the absence or presence of wortmannin or miltefosine, or following treatment of uninfected cells with 1 μM of ionomycin) (c). […]

HSV-2(4674) = experiment: Ganglion-epithelial cell ex vivo co-culture model
Experimental: Sacral ganglia were extracted from mice on day 7 following intravaginal infection with the indicated viral inoculum and co-cultured ex vivo with Vero cells in medium containing DMSO or 20 μM miltefosine. Culture supernatants were collected on the indicated days post-co-culture and viral growth monitored by plaque assay. Results are presented as pfu/ml (mean±sd) obtained from two independent experiments; each with sacral ganglia (d).
Sacral ganglia were removed from mice that had been vaginally infected with 5×10^4 or 5×10^5 pfu of HSV-2 on Day 7 and were then co-cultured with Vero cells in the absence or presence of 20 μM miltefosine. Media was removed on the indicated days post-co-culture and assayed for the presence of infectious virus by titering on Vero cells.
Ganglion-epithelial cell ex vivo co-cultures: Seven days pi, sacaral ganglia were excised from animals that been intravaginally infected with 5×10^4 or 5×10^5 pfu of HSV-2(4674). The tissue was co-cultured with confluent Vero cells in 60-mm Petri dishes containing DMEM supplemented with 0.1% DMSO (control) or with 20 μM of miltefosine. Culture supernatants were collected on days 2-7 post-co-culture and concentration of virus released into the media determined by plaque assay on Vero cells.

HSV-1 and HSV-2 = settings: prior studies (Cheshenko, 2003; 2007); cited from earlier work
HSV-2 [4] = experiment: VP16 nuclear transport as surrogate of viral entry; assay type: cell-based; settings: 1 μM, treated immediately prior to infection, 1 pfu/cell
Experimental: as §1
FIG. 4A-4E: Akt is required for HSV-induced calcium release and treatment with the ionophore, ionomycin, partially overcomes the block to infection in Akt-silenced cells. […] Transfected cells were loaded with fura-2, infected with purified HSV-2 (moi 2 pfu/cell) or mock-infected and the kinetics of Ca^2+ response monitored. The mean intracellular [Ca^2+] for 5×10^4 cells over the first 30 minutes was quantified; control cells were also pretreated with wortmannin or miltefosine and then infected with HSV-2 (b). […]

CCCCCCCCCCCCCCCCOP(=O)([O-])OCC[N+](C)(C)C [miltefosine, 2-(hexadecoxy-oxido-phosphoryl)oxyethyl-trimethyl-azanium]
inhibition of HSV infection (plaque formation, pfu relative to control wells) (HSV-2 [1]): most potent | viral induced phosphorylation of Akt (Akt): blocked viral induced phosphorylation of Akt | viral entry (confocal imaging with GFP labeled virus) (HSV-1 K26GFP): prevented viral entry | activity against acyclovir susceptible and acyclovir resistant viruses in a plaque assay [2]: active against acyclovir susceptible and acyclovir resistant viruses | HSV-induced Ca2+ response ([3]; CaSki cells pretreated with drug (wortmannin 5 nM), HSV-2(G) moi 2 pfu/cell, first hour): blocked the HSV-induced Ca^2+ response; also recorded: prevented viral induced Ca^2+ response | cytotoxicity in ganglion ex vivo co-culture (HSV-2(4674); cells cultured in drug for one week): No cytotoxicity was observed | viral amplification in ganglion explant co-culture (HSV-2(4674); mouse sacral ganglia day 7 after vaginal HSV-2, co-cultured with Vero cells, 20 μM): blocked viral amplification

NCCOB(c1ccccc1)c1ccccc1 [2-aminoethoxydiphenyl borate]
increase in [Ca2+] triggered by HSV (HSV-1 and HSV-2): blocked | viral entry (HSV-1 and HSV-2): blocked

C[C@H](CCC(=O)O)C[C@H](C)C[C@H](C)C(=O)/C=C(\O)[C@H](C)C[C@H](C)C/C=C/[C@@H](C)[C@@H](O)[C@@H](C)[C@@H](O)C[C@@H]1CC[C@@](C)([C@H]2CC[C@@](C)([C@@H](C)O)O2)O1 [ionomycin]
Ca2+ release from siRNA-transfected cell populations ([3]; 1 μM, confocal imaging and fluorometry): triggered the release of a comparable amount of Ca2+ | susceptibility to HSV entry in Akt-silenced cells (nuclear VP16) (HSV-2 [4]): partially restored the susceptibility to HSV entry
